Laboratory results reported in US10196369B2, “Spirocyclic EBI2 modulators” (Sanford Burnham Prebys Medical Discovery Institute, priority 2013, dated 2019).

Target: EBI2 (Homo sapiens, UniProt P32249)
Assay: Cell-based luminescent assay of EBI2 modulation (7a,25-OHC stimulated)
Conditions: 7a,25-OHC final assay concentration 80 nM, 60 minute incubation
Protocol: To assess EBI2 modulation, the compounds described herein were assayed in the following cell-based luminescent assay:
1) Plated 600 cells/well in 4 μL of assay media into columns 1-48 of a 1536-well assay plate, using a liquid dispenser.
2) Centrifuged plates at 1000 rpm for 1 minute and covered with lids.
3) Incubated overnight at 37° C., 100% relative humidity, 5% CO2.
1) Centrifuged compound plates containing compounds described herein at 500 rpm for 1 minute.
2) Added compounds into assay plate col 5-48 to final concentration 4-5 uM. Added matching amount of DMSO to positive and negative control wells in columns 1-4.
3) Dispensed 2 uL/well of assay media to columns 1-2 for the positive control wells.
4) Added 2 uL/well of 400 nM 7a,25-OHC (final assay concentration=80 nM) in assay media to columns 3-48 for the negative control and test compound wells.
5) Centrifuged plates at 1000 rpm for 1 minute and re-lid plates.
6) Incubated plates at 37° C., 100% relative humidity, 5% CO2 for 60 minutes.
7) Following 60 minute incubation, delivered 2.5 uL of Detection Reagent solution to each assay plate (Columns 1-48) using a liquid handler.
8) Centrifuged plates at 2000 rpm for 2 minutes and re-lid plates.
9) Incubated plates for 60 minutes at 25 degrees in the dark.
10) Read plates using the Viewlux, Envision or other suitable plate reader using a luminescence detection.
The experimental values were normalized by the difference between values from neutral and stimulator control wells in each plate. Then normalized data was corrected to remove systematic plate patterns due to artifacts such as dispensing tip issues etc.

Chain of EBI2 (P32249 whole entry): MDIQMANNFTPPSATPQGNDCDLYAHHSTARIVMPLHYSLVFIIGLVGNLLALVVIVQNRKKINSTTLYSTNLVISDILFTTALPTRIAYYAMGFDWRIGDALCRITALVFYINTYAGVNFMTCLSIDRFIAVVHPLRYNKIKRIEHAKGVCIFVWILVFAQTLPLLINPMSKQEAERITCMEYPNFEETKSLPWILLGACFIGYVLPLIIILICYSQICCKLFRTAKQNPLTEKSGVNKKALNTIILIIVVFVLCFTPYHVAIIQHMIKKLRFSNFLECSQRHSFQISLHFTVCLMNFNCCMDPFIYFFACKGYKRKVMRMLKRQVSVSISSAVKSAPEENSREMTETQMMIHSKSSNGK

Structure (SMILES)	IC50
O=C(c1ccc(Cl)cc1)N1CCC2(CC1)CN(C(=O)c1cc3ccc(Cl)cc3[nH]1)C2 [Compound C56, 6-chloroindol-2-yl 7-[(4-chlorophenyl)carbonyl]-2,7-diazaspiro[3.5]non-2-yl ketone]	500 to 5000 nM
O=C(c1cc2cc(Br)ccc2[nH]1)N1CC2(CCN(Cc3ccc(Cl)cc3)CC2)C1 [Compound C49, 5-bromoindol-2-yl 7-[(4-chlorophenyl)methyl]-2,7-diazaspiro[3.5]non-2-yl ketone]	500 to 5000 nM
O=C(C#Cc1ccc(Cl)cc1)N1CCC2(CC1)CN(C(=O)c1ccc(Cl)cc1)C2 [Compound C76, 3-(4-chlorophenyl)-1-{2-[(4-chlorophenyl)carbonyl]-2,7-diazaspiro[3.5]non-7-yl}prop-2-yn-1-one]	< 100 nM
O=C(C#Cc1ccc(Br)cc1)N1CCC2(CC1)CN(Cc1ccc(Cl)cc1)C2 [Compound C69, 3-(4-bromophenyl)-1-{2-[(4-chlorophenyl)methyl]-2,7-diazaspiro[3.5]non-7-yl}prop-2-yn-1-one]	< 100 nM
O=C(C#Cc1ccc(Cl)cc1)N1CCC2(CC1)CN(C(=O)c1ccc(C(F)(F)F)cc1)C2 [Compound C79, 3-(4-chlorophenyl)-1-(2-{[4-(trifluoromethyl)phenyl]carbonyl}-2,7-diazaspiro[3.5]non-7-yl)prop-2-yn-1-one]	< 100 nM
O=C(c1cc2cc(Br)ccc2[nH]1)N1CC2(CCN(Cc3ccc(C(F)(F)F)cc3)CC2)C1 [Compound C50, 5-bromoindol-2-yl 7-{[4-(trifluoromethyl)phenyl]methyl}-2,7-diazaspiro[3.5]non-2-yl ketone]	500 to 5000 nM
O=C(C#Cc1ccc(Cl)cc1)N1CC2(CCN(C(=O)c3ccc(C(F)(F)F)cc3)CC2)C1 [Compound C80, 3-(4-chlorophenyl)-1-(7-{[4-(trifluoromethyl)phenyl]carbonyl}-2,7-diazaspiro[3.5]non-2-yl)prop-2-yn-1-one]	< 100 nM
O=C(c1ccc(C(F)(F)F)c(F)c1)N1CCC2(CC1)CN(C(=O)c1cc3cc(Cl)ccc3[nH]1)C2 [Compound C18, 5-chloroindol-2-yl 7-{[3-fluoro-4-(trifluoromethyl)phenyl]carbonyl}-2,7-diazaspiro[3.5]non-2-yl ketone]	< 100 nM
O=C(/C=C/c1ccc(Br)cc1)N1CCC2(CC1)CN(Cc1c(Cl)cccc1Cl)C2 [Compound C11, (2E)-1-{2-[(2,6-dichlorophenyl)methyl]-2,7-diazaspiro[3.5]non-7-yl}-3-(4-bromophenyl)prop-2-en-1-one]	< 100 nM
COc1ccc(C(=O)N2CC3(CCN(C(=O)C#Cc4ccc(Br)cc4)CC3)C2)cc1 [Compound C74, 3-(4-bromophenyl)-1-{2-[(4-methoxyphenyl)carbonyl]-2,7-diazaspiro[3.5]non-7-yl}prop-2-yn-1-one]	< 100 nM
O=C(C#Cc1ccc(Br)cc1)N1CCC2(CC1)CN(C(=O)c1ccc(C(F)(F)F)cc1)C2 [Compound C71, 3-(4-bromophenyl)-1-(2-{[4-(trifluoromethyl)phenyl]carbonyl}-2,7-diazaspiro[3.5]non-7-yl)prop-2-yn-1-one]	< 100 nM
O=C(c1ccc(F)cc1)N1CCC2(CC1)CN(C(=O)c1cc3cc(Cl)ccc3[nH]1)C2 [Compound C38, 5-chloroindol-2-yl 7-[(4-fluorophenyl)carbonyl]-2,7-diazaspiro[3.5]non-2-yl ketone]	100 to 500 nM
O=C(C#Cc1ccc(F)cc1)N1CCC2(CC1)CN(Cc1ccc(F)cc1C(F)(F)F)C2 [Compound C90, 3-(4-fluorophenyl)-1-(2-{[4-fluoro-2-(trifluoromethyl)phenyl]methyl}-2,7-diazaspiro[3.5]non-7-yl)prop-2-yn-1-one]	100 to 500 nM
O=C(C#Cc1ccc(Br)cc1)N1CCC2(CC1)CN(Cc1ccc(C(F)(F)F)cc1)C2 [Compound C73, 3-(4-bromophenyl)-1-(2-{[4-(trifluoromethyl)phenyl]methyl}-2,7-diazaspiro[3.5]non-7-yl)prop-2-yn-1-one]	< 100 nM
O=C(c1ccc(Cl)cc1)N1CCC2(CC1)CN(C(=O)c1cc3cc(Cl)ccc3[nH]1)C2 [Compound C40, 5-chloroindol-2-yl 7-[(4-chlorophenyl)carbonyl]-2,7-diazaspiro[3.5]non-2-yl ketone]	< 100 nM

Further lines, results first:

IC50	Structure (SMILES)
< 100 nM	O=C(/C=C/c1ccc(Br)cc1)N1CCC2(CC1)CN(C(=O)c1ccccc1)C2 [Compound C7, (2E)-3-(4-bromophenyl)-1-[2-(phenylcarbonyl)-2,7-diazaspiro[3.5]non-7-yl]prop-2-en-1-one]
500 to 5000 nM	O=C(c1ccc(C(F)(F)F)cc1)N1CCC2(CC1)CN(C(=O)c1cc3ccc(Br)cc3[nH]1)C2 [Compound C58, 6-bromoindol-2-yl 7-{[4-(trifluoromethyl)phenyl]carbonyl}-2,7-diazaspiro[3.5]non-2-yl ketone]
< 100 nM	O=C(c1ccc(Br)cc1)N1CCC2(CC1)CN(C(=O)c1cc3cc(Br)ccc3[nH]1)C2 [Compound C46, 5-bromoindol-2-yl 7-[(4-bromophenyl)carbonyl]-2,7-diazaspiro[3.5]non-2-yl ketone]
100 to 500 nM	COc1cc(CN2CCC3(CC2)CN(C(=O)c2cc4cc(Br)ccc4[nH]2)C3)cc(OC)c1 [Compound C62, 7-[(3,5-dimethoxyphenyl)methyl]-2,7-diazaspiro[3.5]non-2-yl 5-bromoindol-2-yl ketone]
100 to 500 nM	COc1ccc(C(=O)N2CCC3(CC2)CN(C(=O)C#Cc2ccc(F)cc2F)C3)cc1 [Compound C97, 3-(2,4-difluorophenyl)-1-{7-[(4-methoxyphenyl)carbonyl]-2,7-diazaspiro[3.5]non-2-yl}prop-2-yn-1-one]
500 to 5000 nM	O=C(c1ccc(-c2nnn[nH]2)cc1)N1CCC2(CC1)CN(C(=O)c1cc3cc(Cl)ccc3[nH]1)C2 [Compound C42, 5-chloroindol-2-yl 7-[(4-(1H-1,2,3,4-tetraazol-5-yl)phenyl)carbonyl]-2,7-diazaspiro[3.5]non-2-yl ketone]
500 to 5000 nM	O=C(C#Cc1ccc(Br)cc1)N1CCC2(CC1)CN(C(=O)c1ccc(F)cc1)C2 [Compound C67, 3-(4-bromophenyl)-1-{2-[(4-fluorophenyl)carbonyl]-2,7-diazaspiro[3.5]non-7-yl}prop-2-yn-1-one]
< 100 nM	O=C(C#Cc1ccc(F)cc1)N1CCC2(CC1)CN(C(=O)c1ccc(C(F)(F)F)cc1)C2 [Compound C88, 3-(4-fluorophenyl)-1-(2-{[4-(trifluoromethyl)phenyl]carbonyl}-2,7-diazaspiro[3.5]non-7-yl)prop-2-yn-1-one]
< 100 nM	O=C(c1ccc(C(F)(F)F)c(F)c1)N1CCC2(CC1)CCN(C(=O)c1cc3cc(Cl)ccc3[nH]1)CC2 [Compound C100, 5-chloroindol-2-yl 9-{[3-fluoro-4-(trifluoromethyl)phenyl]carbonyl}-3,9-diazaspiro[5.5]undec-3-yl ketone]
< 100 nM	O=C(c1ccc(C(F)(F)F)cc1)N1CCC2(CC1)CN(C(=O)c1cc3cc(Cl)ccc3[nH]1)C2 [Compound C39, 5-chloroindol-2-yl 7-{[4-(trifluoromethyl)phenyl]carbonyl}-2,7-diazaspiro[3.5]non-2-yl ketone]
< 100 nM	O=C(/C=C/c1ccc(Br)cc1)N1CC2(CCN(C(=O)c3ccc(F)c(C(F)(F)F)c3)CC2)C1 [Compound C22, (2E)-3-(4-bromophenyl)-1-(7-{[4-fluoro-3-(trifluoromethyl)phenyl]carbonyl}-2,7-diazaspiro[3.5]non-2-yl)prop-2-en-1-one]
